Measured values as given in US12077503B2, “Substituted cyclic amides and their use as herbicides” (FMC CORPORATION, priority 2015, dated 2024).

Tests used:
Format in all cases: in vivo
[1] = tested on: barnyardgrass (Echinochloa crus-galli); test: Test A preemergence
How it was run: (§1)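 Visual injury scores from 0, no effect, to 100, complete control, were assigned versus untreated controls roughly 10 d after treatment in the greenhouse. Test chemicals, formulated with surfactant in a non-phytotoxic solvent, were applied to planted seeds as a preemergence soil spray or postemergence to one- to two-leaf plants 2 to 10 cm tall, in loam–sand soil.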

[2] = tested on: pigweed (Amaranthus retroflexus); test: Test A preemergence
[3] = tested on: giant foxtail (Setaria faberii); test: Test A preemergence
How it was run: as §1

[4] = tested on: ragweed (common ragweed, Ambrosia elatior); test: Test A preemergence
How it was run: as §1

[5] = tested on: ryegrass, Italian (Italian ryegrass, Lolium multiflorum); test: Test A preemergence
How it was run: as §1

Kochia (Kochia scoparia) [6] = test: Test A preemergence
How it was run: as §1

[7] = tested on: barnyardgrass (Echinochloa crus-galli); test: Test B flooded paddy test; settings: Flood, 0 to 100 scale where 0 is no effect and 100 is complete control, 13 to 15 d
How it was run: (§2)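 Visual ratings (0 none to 100 complete control) are relative to untreated plants, taken 13–15 d after treatment in a greenhouse. Test material went straight into floodwater standing 3 cm above the soil, kept constant, on plants at the 2-leaf stage.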

rice (Oryra sativa) = test: Test B flooded paddy test; settings: Flood, 0 to 100 scale where 0 is no effect and 100 is complete control, 13 to 15 d
How it was run: as §2

[8] = tested on: sedge, umbrella (small-flower umbrella sedge, Cyperus difformis); test: Test B flooded paddy test; settings: Flood, 0 to 100 scale where 0 is no effect and 100 is complete control, 13 to 15 d
How it was run: as §2

[9] = tested on: ducksalad (Heteranthera limosa); test: Test B flooded paddy test; settings: Flood, 0 to 100 scale where 0 is no effect and 100 is complete control, 13 to 15 d
How it was run: as §2

[10] = tested on: barnyardgrass (Echinochloa crus-galli); test: Test A postemergence
How it was run: as §1

corn (Zea mays) = test: Test A postemergence
How it was run: as §1

[11] = tested on: pigweed (Amaranthus retroflexus); test: Test A postemergence
How it was run: as §1

[12] = tested on: giant foxtail (Setaria faberii); test: Test A postemergence
How it was run: as §1

[13] = tested on: blackgrass (Alopecurus myosuroides); test: Test A postemergence
How it was run: as §1

[14] = tested on: wheat (Triticum aestivum); test: Test A postemergence
How it was run: as §1

[15] = tested on: ragweed (common ragweed, Ambrosia elatior); test: Test A postemergence
How it was run: as §1

[16] = tested on: ryegrass, Italian (Italian ryegrass, Lolium multiflorum); test: Test A postemergence
How it was run: as §1

[17] = tested on: Galium (catchweed bedstraw, Galium aparine); test: Test A postemergence
How it was run: as §1

Kochia (Kochia scoparia) [18] = test: Test A postemergence
How it was run: as §1

[19] = 125 g ai/ha, Preemergence, visual injury after approximately 10 d, 0 to 100 scale where 0 is no effect and 100 is complete control
[20] = Preemergence, 500 g ai/ha, visual injury approx. 10 d
[21] = 125 g ai/ha, postemergence, visual injury rating on 0 to 100 scale (0 no effect, 100 complete control), approx. 10 d
[22] = Postemergence, 500 g ai/ha, 0 to 100 scale where 0 is no effect and 100 is complete control
[23] = 500 g ai/ha, preemergence, 0 to 100 scale, 0 = no effect, 100 = complete control
[24] = 125 g ai/ha, postemergence, visual rating after approx. 10 d, 0 to 100 scale (0 no effect, 100 complete control)
[25] = 500 g ai/ha, postemergence, visual injury, 0 to 100 scale (0 no effect, 100 complete control), approx. 10 d
[26] = 125 g ai/ha, preemergence, visual rating after approx. 10 d, 0 to 100 scale where 0 is no effect and 100 is complete control
[27] = 125 g ai/ha, postemergence, visual injury after approximately 10 d, 0 to 100 scale (0 no effect, 100 complete control)

COCc1cccc(C2CNC(=O)C2C(=O)Nc2ccccc2F)c1 (stereo not drawn) [Compound 496]
Plant response rating, Barnyardgrass [1, 19]: 60 | Barnyardgrass plant response rating (0 to 100 scale, 0 is no effect, 100 is complete control) [1, 20]: 90 | Plant response rating, Pigweed [2, 19]: 0 | Pigweed plant response rating (0 to 100 scale, 0 is no effect, 100 is complete control) [2, 20]: 0 | Plant response rating, Foxtail, Giant [3, 19]: 30 | Foxtail, Giant plant response rating (0 to 100 scale, 0 is no effect, 100 is complete control) [3, 20]: 90 | Plant response rating, Ragweed [4, 19]: 0 | Ragweed plant response rating (0 to 100 scale, 0 is no effect, 100 is complete control) [4, 20]: 0 | Plant response rating, Ryegrass, Italian [5, 19]: 0 | Ryegrass, Italian plant response rating (0 to 100 scale, 0 is no effect, 100 is complete control) [5, 20]: 0 | Plant response rating, Kochia (Kochia (Kochia scoparia) [6]; [19]): 0 | Kochia plant response rating (0 to 100 scale, 0 is no effect, 100 is complete control) (Kochia (Kochia scoparia) [6]; [20]): 40 | Plant response rating, Barnyardgrass ([7]; 250 g ai/ha): 60 | Plant response rating, Rice (rice (Oryra sativa); 250 g ai/ha): 0 | Plant response rating, Sedge, Umbrella ([8]; 250 g ai/ha): 0 | Plant response rating, Ducksalad ([9]; 250 g ai/ha): 85 | Barnyardgrass plant response rating [10, 21]: 60 | Plant response rating, Barnyardgrass [10, 22]: 80 | Corn plant response rating (corn (Zea mays); [21]): 0 | Plant response rating, Corn (corn (Zea mays); [22]): 0 | Pigweed plant response rating [11, 21]: 0 | Plant response rating, Pigweed [11, 22]: 0 | Foxtail, Giant plant response rating [12, 21]: 20 | Plant response rating, Foxtail, Giant [12, 22]: 50 | Blackgrass plant response rating [13, 21]: 0 | Plant response rating, Blackgrass [13, 22]: 0 | Wheat plant response rating [14, 21]: 0 | Plant response rating, Wheat [14, 22]: 0 | Ragweed plant response rating [15, 21]: 0 | Plant response rating, Ragweed [15, 22]: 0 | Ryegrass, Italian plant response rating [16, 21]: 0 | Plant response rating, Ryegrass, Italian [16, 22]: 0 | Galium plant response rating [17, 21]: 0 | Plant response rating, Galium [17, 22]: 30 | Kochia plant response rating (Kochia (Kochia scoparia) [18]; [21]): 0 | Plant response rating, Kochia (Kochia (Kochia scoparia) [18]; [22]): 0

Cc1ccc(C2CNC(=O)C2C(=O)Nc2ccc(F)cc2F)cc1C(F)(F)F (racemic) [Compound 680]
Plant response rating, Barnyardgrass [1, 19]: 30 | Plant response rating, Barnyardgrass [1, 23]: 90 | Plant response rating, Pigweed [2, 19]: 0 | Plant response rating, Pigweed [2, 23]: 0 | Plant response rating, Foxtail, Giant [3, 19]: 60 | Plant response rating, Foxtail, Giant [3, 23]: 90 | Plant response rating, Ragweed [4, 19]: 0 | Plant response rating, Ragweed [4, 23]: 0 | Plant response rating, Ryegrass, Italian [5, 19]: 0 | Plant response rating, Ryegrass, Italian [5, 23]: 20 | Plant response rating, Kochia (Kochia (Kochia scoparia) [6]; [19]): 0 | Plant response rating, Kochia (Kochia (Kochia scoparia) [6]; [23]): 20 | Plant response rating, Barnyardgrass ([7]; 250 g ai/ha): 20 | Plant response rating, Rice (rice (Oryra sativa); 250 g ai/ha): 15 | Plant response rating, Sedge, Umbrella ([8]; 250 g ai/ha): 0 | Plant response rating, Ducksalad ([9]; 250 g ai/ha): 30 | Plant response rating, Barnyardgrass [10, 24]: 30 | Plant response rating, Barnyardgrass [10, 25]: 60 | Plant response rating, Corn (corn (Zea mays); [24]): 20 | Plant response rating, Corn (corn (Zea mays); [25]): 20 | Plant response rating, Pigweed [11, 24]: 0 | Plant response rating, Pigweed [11, 25]: 0 | Plant response rating, Foxtail, Giant [12, 24]: 0 | Plant response rating, Foxtail, Giant [12, 25]: 30 | Plant response rating, Blackgrass [13, 24]: 20 | Plant response rating, Blackgrass [13, 25]: 20 | Plant response rating, Wheat [14, 24]: 0 | Plant response rating, Wheat [14, 25]: 0 | Plant response rating, Ragweed [15, 24]: 0 | Plant response rating, Ragweed [15, 25]: 0 | Plant response rating, Ryegrass, Italian [16, 24]: 0 | Plant response rating, Ryegrass, Italian [16, 25]: 0 | Plant response rating, Galium [17, 24]: 0 | Plant response rating, Galium [17, 25]: 20 | Plant response rating, Kochia (Kochia (Kochia scoparia) [18]; [24]): 0 | Plant response rating, Kochia (Kochia (Kochia scoparia) [18]; [25]): 0

O=C1NCC(c2ccc(I)cc2)C1C(=O)Nc1ccccc1F (racemic) [Compound 702]
Plant response rating, Barnyardgrass [1, 26]: 70 | Plant response rating, Barnyardgrass [1, 23]: 90 | Plant response rating, Pigweed [2, 26]: 0 | Plant response rating, Pigweed [2, 23]: 30 | Plant response rating, Foxtail, Giant [3, 26]: 90 | Plant response rating, Foxtail, Giant [3, 23]: 90 | Plant response rating, Ragweed [4, 26]: 0 | Plant response rating, Ragweed [4, 23]: 0 | Plant response rating, Ryegrass, Italian [5, 26]: 0 | Plant response rating, Ryegrass, Italian [5, 23]: 0 | Plant response rating, Kochia (Kochia (Kochia scoparia) [6]; [26]): 20 | Plant response rating, Kochia (Kochia (Kochia scoparia) [6]; [23]): 20 | Plant response rating, Barnyardgrass ([7]; 500 g ai/ha): 50 | Plant response rating, Rice (rice (Oryra sativa); 500 g ai/ha): 20 | Plant response rating, Sedge, Umbrella ([8]; 500 g ai/ha): 0 | Plant response rating, Ducksalad ([9]; 500 g ai/ha): 100 | Plant response rating, Barnyardgrass [10, 27]: 70 | Plant response rating, Barnyardgrass [10, 25]: 70 | Plant response rating, Corn (corn (Zea mays); [27]): 0 | Plant response rating, Corn (corn (Zea mays); [25]): 0 | Plant response rating, Pigweed [11, 27]: 0 | Plant response rating, Pigweed [11, 25]: 0 | Plant response rating, Foxtail, Giant [12, 27]: 30 | Plant response rating, Foxtail, Giant [12, 25]: 80 | Plant response rating, Blackgrass [13, 27]: 0 | Plant response rating, Blackgrass [13, 25]: 0 | Plant response rating, Wheat [14, 27]: 0 | Plant response rating, Wheat [14, 25]: 0 | Plant response rating, Ragweed [15, 27]: 0 | Plant response rating, Ragweed [15, 25]: 0 | Plant response rating, Ryegrass, Italian [16, 27]: 0 | Plant response rating, Ryegrass, Italian [16, 25]: 0 | Plant response rating, Galium [17, 27]: 0 | Plant response rating, Galium [17, 25]: 40 | Plant response rating, Kochia (Kochia (Kochia scoparia) [18]; [27]): 0 | Plant response rating, Kochia (Kochia (Kochia scoparia) [18]; [25]): 0
